This is an account of results in publication PMC9230651, “Discovery of Novel Quinazoline Derivatives as Potent Antitumor Agents” (Molecules, 2022).

For orientation: IC50 means the concentration that inhibits the measured activity by half. Low values mean greater potency in that assay, high ones weaker potency in that assay. By melting point is commonly meant the temperature of the solid-liquid transition.

Series [1] has as its system A549. As to the kind of experiment: MTT assay, antiproliferative activity against A549. The series is classed as cell-based, human. The method, then: (§1) Human gastric carcinoma cell line MGC-803, human breast adenocarcinoma cell line MCF-7, human lung carcinoma cell lines (PC-9, A549, and H1975), and human immortalized gastric mucosa epithelial cell line GES-1 were purchased from the Cell Bank of Shanghai Institute of Biochemistry and Cell Biology (Shanghai, China), and all of them were cultured in RPMI-1640 and DMEM complete medium (Solarbio, Beijing, China) at 37 °C in a 5% CO2 humidified atmosphere.
(§2) Briefly, cells were incubated with different concentrations of the test compound for different hours in each experiment for 72 h, followed by adding 20 μL MTT solution to each well, which was then incubated for another 4 h. An enzyme-linked immunosorbent assay reader (BioTek, South Plainfield, VT, USA) was used to measure absorbance values at 490 nm, and SPSS20 software was used to calculate the cell viability and IC50 values.

The subject of series [2] is xenograft model carrying MGC-803 cells. Description: In vivo anti-tumor activity, gastric cancer xenograft model. Further details: species or system mice. Particulars: 10 mg/kg intravenous every three days. The method, then: Male mice (23–25 g, aged 5–6 weeks) were obtained from Beijing Vital River Laboratory Animal Technology Co., Ltd. (Beijing, China). All animal treatments were performed under the guidelines of the National Institutes of Health Guide for the Care and Use of Laboratory Animals using an approved animal protocol by the Zhengzhou University Committee on Animal Care (2020CHEM-ZZU-086). 1.0 × 10^7 MGC-803 cells were implanted in the right flank of mice subcutaneously. After 16 days, the tumor volume reached 100 mm^3, followed by being randomly divided into three groups (n = 7): solvent group, 5-Fu (10 mg/kg) group, and compound 18 (25 mg/kg) group. An intravenous injection of 5-Fu (10 mg/kg) was administered into the corresponding mice group every three days, while the mice in compound 18 group received intragastric administration of 25 mg/kg compound 18 per day for 21 days. Tumor diameter and body weight were measured every two days, followed by the euthanization of the mice after 34 days, after which tumor weights were.

Series [3] relates to GES-1. Description: MTT assay, toxicity toward normal gastric epithelial cell line GES-1. As to conditions: MTT, 72 h. It is filed as cell-based, human. The method, then:
as §1, §2
(In general: Tetrazolium dyes change colour on reduction, which living cells bring about.)

Series [4] concerns MGC-803. Description: MTT assay, antiproliferative activity against MGC-803. It is filed as cell-based, human. How it is done: as §1, §2
Series [5] concerns MCF-7. As to the kind of experiment: MTT assay, antiproliferative activity against MCF-7. It is filed as cell-based, human. How it is done: as §1, §2
The test system of series [6] is PC-9. Description: MTT assay, antiproliferative activity against PC-9. The series is classed as cell-based, human. How it is done: as §1, §2
The test system of series [7] is H1975. Description: MTT assay, antiproliferative activity against H1975. It is filed as cell-based, human. How it is done:
as §1, §2

Take `O=c1[nH]cc(F)c(=O)[nH]1` [5-Fu, reference compound]: the IC50 in series [1] (72 h) was 5.12 ± 1.73 µM; in series [3], 3.26 ± 1.07 µM; in series [4] (72 h), 4.11 ± 0.72 µM; in series [5] (72 h), 4.51 ± 1.23 µM; in series [6] (72 h), 3.68 ± 1.06 µM; in series [7] (72 h), 2.68 ± 0.86 µM. For the same compound, the average tumor volume entry in series [2] was “decreased the average tumor volume”. In series [2], the body weight entry is listed as “did not cause significant changes in body weight”. Besides, the tumor weight entry in series [2] is “decreased the average tumor volume and tumor weight”.

In the case of `c1ccc(Nc2nc(-c3ccccc3)nc3ccccc23)cc1` [compound 6, N,2-Diphenylquinazolin-4-amine], the IC50 was 10.3 ± 0.98 µM in series [1] (Homo sapiens, A549, 72 h); above 30 µM in series [3] (Homo sapiens, GES1); 6.23 ± 0.12 µM in series [4] (Homo sapiens, MGC-803, 72 h); 12.6 ± 0.16 µM in series [5] (Homo sapiens, MCF7, 72 h); 15.8 ± 0.52 µM in series [6] (Homo sapiens, PC-9, 72 h); 20.1 ± 1.62 µM in series [7] (Homo sapiens, NCI-H1975, 72 h).

For `Fc1ccc(Nc2nc(-c3ccccc3)nc3ccccc23)cc1` [compound 7, N-(4-Fluorophenyl)-2-phenylquinazolin-4-amine], the IC50 is 4.82 ± 0.99 µM in series [1] (Homo sapiens, A549, 72 h); 20.8 ± 3.29 µM in series [3] (Homo sapiens, GES1); 4.15 ± 1.16 µM in series [4] (Homo sapiens, MGC-803, 72 h); 8.75 ± 1.76 µM in series [5] (Homo sapiens, MCF7, 72 h); 10.6 ± 2.16 µM in series [6] (Homo sapiens, PC-9, 72 h); 12.6 ± 2.89 µM in series [7] (Homo sapiens, NCI-H1975, 72 h).

As to `Clc1ccc(Nc2nc(-c3ccccc3)nc3ccccc23)cc1` [compound 8, N-(4-Chlorophenyl)-2-phenylquinazolin-4-amine], the IC50 in series [1] (Homo sapiens, A549, 72 h) is 6.58 ± 1.31 µM; in series [3] (Homo sapiens, GES1), above 30 µM; in series [4] (Homo sapiens, MGC-803, 72 h), 3.57 ± 0.89 µM; in series [5] (Homo sapiens, MCF7, 72 h), 6.96 ± 1.57 µM; in series [6] (Homo sapiens, PC-9, 72 h) it was 8.75 ± 1.59 µM; in series [7] (Homo sapiens, NCI-H1975, 72 h), 10.6 ± 2.46 µM.

The compound `Brc1ccc(Nc2nc(-c3ccccc3)nc3ccccc23)cc1` [compound 9, N-(4-Bromophenyl)-2-phenylquinazolin-4-amine] came in with a melting point of 187 to 193 °C. Besides, the IC50 in series [1] (Homo sapiens, A549, 72 h) was determined as 4.75 ± 1.36 µM. The compound also registered a half-maximal inhibitory concentration (IC50) in series [3] (Homo sapiens, GES1) of 18.6 ± 1.72 µM. Half-maximal inhibition in series [4] (Homo sapiens, MGC-803, 72 h) (IC50) required 1.89 ± 0.59 µM. The compound further had an IC50 in series [5] (Homo sapiens, MCF7, 72 h) of 5.15 ± 1.16 µM. The compound also yielded an IC50 in series [6] (Homo sapiens, PC-9, 72 h) of 4.31 ± 0.96 µM. Also, in series [7] (Homo sapiens, NCI-H1975, 72 h), the IC50 came to 6.65 ± 1.57 µM.

For `O=[N+]([O-])c1ccc(Nc2nc(-c3ccccc3)nc3ccccc23)cc1` [compound 10, N-(4-Nitrophenyl)-2-phenylquinazolin-4-amine], the IC50 in series [1] (Homo sapiens, A549, 72 h) was 15.7 ± 1.89 µM; in series [3] (Homo sapiens, GES1), above 30 µM; in series [4] (Homo sapiens, MGC-803, 72 h), 8.32 ± 2.06 µM; in series [5] (Homo sapiens, MCF7, 72 h) it was 12.2 ± 1.91 µM; in series [6] (Homo sapiens, PC-9, 72 h) it was 12.5 ± 2.83 µM; in series [7] (Homo sapiens, NCI-H1975, 72 h), 25.8 ± 2.2 µM.

Compound `FC(F)(F)c1ccc(Nc2nc(-c3ccccc3)nc3ccccc23)cc1` [compound 11, 2-Phenyl-N-(4-(trifluoromethyl)phenyl)quinazolin-4-amine] yielded a melting point of 190 to 195 °C. Besides, in series [1] (Homo sapiens, A549, 72 h), the IC50 came to 25.4 ± 3.11 µM. The compound further yielded an IC50 in series [3] (Homo sapiens, GES1) of 25.4 ± 3.51 µM. Moreover, the IC50 in series [4] (Homo sapiens, MGC-803, 72 h) was 11 ± 1.93 µM. In addition, the IC50 in series [5] (Homo sapiens, MCF7, 72 h) was determined as 15.7 ± 1.82 µM. The compound also had an IC50 in series [6] (Homo sapiens, PC-9, 72 h) of 20.8 ± 2.16 µM. For the same compound, the 50% inhibitory concentration (IC50) in series [7] (Homo sapiens, NCI-H1975, 72 h) worked out at 22.9 ± 2.69 µM.

On to `Cc1ccc(Nc2nc(-c3ccccc3)nc3ccccc23)cc1` [compound 12, 2-Phenyl-N-(p-tolyl)quinazolin-4-amine], for which the IC50 in series [1] (Homo sapiens, A549, 72 h) was 8.56 ± 1.72 µM; in series [3] (Homo sapiens, GES1) it was 24.3 ± 1.96 µM; in series [4] (Homo sapiens, MGC-803, 72 h) it was 5.81 ± 2.41 µM; in series [5] (Homo sapiens, MCF7, 72 h) it was 10.6 ± 1.67 µM; in series [6] (Homo sapiens, PC-9, 72 h) it was 15.3 ± 1.53 µM; in series [7] (Homo sapiens, NCI-H1975, 72 h) it was 19.4 ± 2.38 µM.

In the case of `COc1ccc(Nc2nc(-c3ccccc3)nc3ccccc23)cc1` [compound 13, N-(4-Methoxyphenyl)-2-phenylquinazolin-4-amine], the IC50 in series [1] (Homo sapiens, A549, 72 h) is 5.69 ± 1.68 µM; in series [3] (Homo sapiens, GES1) it was 21.3 ± 2.79 µM; in series [4] (Homo sapiens, MGC-803, 72 h) it was 4.98 ± 1.26 µM; in series [5] (Homo sapiens, MCF7, 72 h), 8.36 ± 1.92 µM; in series [6] (Homo sapiens, PC-9, 72 h) it was 6.83 ± 1.29 µM; in series [7] (Homo sapiens, NCI-H1975, 72 h), above 30 µM.

As for `COc1cc(Nc2nc(-c3ccccc3)nc3ccccc23)cc(OC)c1OC` [compound 14, 2-Phenyl-N-(3,4,5-trimethoxyphenyl)quinazolin-4-amine], the IC50 was determined as 8.72 ± 1.53 µM in series [1] (Homo sapiens, A549, 72 h); 19.6 ± 2.58 µM in series [3] (Homo sapiens, GES1); 2.12 ± 0.97 µM in series [4] (Homo sapiens, MGC-803, 72 h); 3.21 ± 2.28 µM in series [5] (Homo sapiens, MCF7, 72 h); 5.35 ± 1.82 µM in series [6] (Homo sapiens, PC-9, 72 h); 13.2 ± 1.86 µM in series [7] (Homo sapiens, NCI-H1975, 72 h).

`c1ccc(-c2nc(Nc3cccc4ccccc34)c3ccccc3n2)cc1` [compound 15, N-(Naphthalen-1-yl)-2-phenylquinazolin-4-amine] yielded a melting point of 204 to 208 °C. For the same compound, the IC50 in series [1] (Homo sapiens, A549, 72 h) was determined as 12.2 ± 1.59 µM. In addition, in series [3] (Homo sapiens, GES1), the half-inhibitory concentration (IC50) is above 30 µM. Also, in series [4] (Homo sapiens, MGC-803, 72 h), it took 18.9 ± 2.82 µM to reach half-maximal inhibition (IC50). In series [5] (Homo sapiens, MCF7, 72 h), this compound had an IC50 above 30 µM. Moreover, the IC50 in series [6] (Homo sapiens, PC-9, 72 h) is 15.4 ± 1.92 µM. The compound further had an IC50 in series [7] (Homo sapiens, NCI-H1975, 72 h) of 10.4 ± 1.88 µM.

`O=C(/C=C/c1ccc(F)cc1)c1ccc(Nc2nc(-c3ccccc3)nc3ccccc23)cc1` [compound 16, (E)-3-(4-Fluorophenyl)-1-(4-((2-phenylquinazolin-4-yl)amino)phenyl)prop-2-en-1-one] came in with a melting point of 252 to 256 °C. In addition, half-maximal inhibition in series [1] (Homo sapiens, A549, 72 h) (IC50) required 1.98 ± 0.26 µM. In series [3] (Homo sapiens, GES1), this compound registered an IC50 of 18.8 ± 1.56 µM. In series [4] (Homo sapiens, MGC-803, 72 h), this compound had an IC50 of 2.02 ± 0.38 µM. Further, in series [5] (Homo sapiens, MCF7, 72 h), the concentration for half-maximal inhibition (IC50) came to 3.96 ± 0.92 µM. In series [6] (Homo sapiens, PC-9, 72 h), this compound registered an IC50 of 2.75 ± 0.66 µM. Moreover, half-maximal inhibition in series [7] (Homo sapiens, NCI-H1975, 72 h) (IC50) required 3.67 ± 0.93 µM.

For the compound `O=C(/C=C/c1ccc(Cl)cc1)c1ccc(Nc2nc(-c3ccccc3)nc3ccccc23)cc1` [compound 17, (E)-3-(4-Chlorophenyl)-1-(4-((2-phenylquinazolin-4-yl)amino)phenyl)prop-2-en-1-one], the melting point lay within 263 to 267 °C. In series [1] (Homo sapiens, A549, 72 h), this compound registered an IC50 of 1.46 ± 0.16 µM. In series [3] (Homo sapiens, GES1), this compound showed a half-inhibitory concentration (IC50) of 23.4 ± 2.83 µM. The compound also gave an IC50 in series [4] (Homo sapiens, MGC-803, 72 h) of 1.39 ± 0.26 µM. Also, the IC50 in series [5] (Homo sapiens, MCF7, 72 h) was determined as 2.37 ± 0.35 µM. In series [6] (Homo sapiens, PC-9, 72 h), the IC50 turned out to be 1.89 ± 0.67 µM. This compound showed an IC50 in series [7] (Homo sapiens, NCI-H1975, 72 h) of 4.75 ± 0.81 µM.

For `O=C(/C=C/c1ccc2ccccc2c1)c1ccc(Nc2nc(-c3ccccc3)nc3ccccc23)cc1` [compound 19, (E)-3-(Naphthalen-2-yl)-1-(4-((2-phenylquinazolin-4-yl)amino)phenyl)prop-2-en-1-one], the melting point lay in the range of 281 to 286 °C. Half-maximal inhibition in series [1] (Homo sapiens, A549, 72 h) (IC50) required 2.55 ± 0.49 µM. Besides, in series [3] (Homo sapiens, GES1), half-maximal inhibition (IC50) was put at 19.8 ± 2.21 µM. This compound yielded an IC50 in series [4] (Homo sapiens, MGC-803, 72 h) of 1.56 ± 0.92 µM. Besides, the midpoint of inhibition in series [5] (Homo sapiens, MCF7, 72 h), the IC50, lay at 1.96 ± 0.56 µM. For the same compound, 1.39 ± 0.25 µM corresponded to half-maximal inhibition in series [6] (Homo sapiens, PC-9, 72 h) (IC50). The compound also showed an IC50 in series [7] (Homo sapiens, NCI-H1975, 72 h) of 2.61 ± 0.59 µM.
